Test system: KARPAS-422 (EZH2 Y641N mutation)
Test: Cell growth inhibition test, KARPAS-422
Format: cell-based
Details: Homo sapiens, KARPAS-422, 168 h, KARPAS-422, culture time 7 days; read-out: Cell growth inhibitory activity (GI50, nM) KARPAS-422 (EZH2 Y641N mutation)
Protocol: Each type of the cultured cells was seeded in 6-well plates or 48-96 well plates, and subculture or medium replacement was performed every 3 to 4 days. Next, the cells were subcultured for a total of 7 to 14 days, and then seeded in 96-well plates. 3 to 5 days before the measurement of the effect, the cells were seeded in 96-well plates, and then the absorbance (Tz) on the day of seeding was measured. The absorbance after the reaction was measured by the plate reader device Synergy NeoAlpha (Biotek) using Cell-Titer-Glo Cell Viability Assay (Promega, G7573) according to the attached manual. Based on the absorbance (Tz) measured on the seeding day and the absorbance of each of the DMSO-treated group (C) and the sample-added group (Ti) measured on the day of effect determination, the percentage of cell proliferation inhibition was calculated according to the following Equation 1. [(Ti−Tz)/(C−Tz)]×100 for concentrations for which Ti≥Tz […] for concentrations for which Ti<Tz. [Equation 1]

GI50 [nM]	Structure (SMILES)
87	Cc1cc(C)c(CN2CCc3c(Cl)c4c(c(C)c3C2=O)OC(C)([C@@H]2CCC[C@H](N(C)C)C2)O4)c(=O)[nH]1 (relative stereo) [Compound 36, 9-chloro-6-((4,6-dimethyl-2-oxo-1,2-dihydropyridin-3-yl)methyl)-2-(cis-3-(dimethylamino)cyclohexyl)-2,4-dimethyl-7,8-dihydro-[1,3]dioxolo[4,5-g]isoquinolin-5(6H)-one]
22	Cc1cc(C)c(CN2CCc3c(Cl)c4c(c(C)c3C2=O)OC(C)([C@@H]2CC[C@H](N(C)C)C2)O4)c(=O)[nH]1 (relative stereo) [Compound 37, 9-chloro-6-((4,6-dimethyl-2-oxo-1,2-dihydropyridin-3-yl)methyl)-2-(cis-3-(dimethylamino)cyclopentyl)-2,4-dimethyl-7,8-dihydro-[1,3]dioxolo[4,5-g]isoquinolin-5(6H)-one]
39	Cc1cc(C)c(CN2CCc3c(cc4c(c3C)OC(C)([C@H]3CC[C@H](N(C)C)CC3)O4)C2=O)c(=O)[nH]1 (stereo partly drawn) [Compound 3, 6-((4,6-dimethyl-2-oxo-1,2-dihydropyridin-3-yl)methyl)-2-(trans-4-(dimethylamino)cyclohexyl)-2,9-dimethyl-7,8-dihydro-[1,3]dioxolo[4,5-g]isoquinolin-5(6H)-one]
> 1000	Cc1cc(C)c(CN2CCc3c(Cl)c4c(c(C)c3C2=O)OC(C)(c2ccc3c(ccn3C)c2)O4)c(=O)[nH]1 (centres unmarked) [Compound 32, 9-chloro-6-((4,6-dimethyl-2-oxo-1,2-dihydropyridin-3-yl)methyl)-2,4-dimethyl-2-(1-methyl-1H-indol-5-yl)-7,8-dihydro-[1,3]dioxolo[4,5-g]isoquinolin-5(6H)-one]
187	CO[C@H]1CC[C@H](C2(C)Oc3c(C)c4c(c(Cl)c3O2)CCN(Cc2c(C)cc(C)[nH]c2=O)C4=O)CC1 (stereo partly drawn) [Compound 33, 9-chloro-6-((4,6-dimethyl-2-oxo-1,2-dihydropyridin-3-yl)methyl)-2-(trans-4-methoxycyclohexyl)-2,4-dimethyl-7,8-dihydro-[1,3]dioxolo[4,5-g]isoquinolin-5(6H)-one]
57	Cc1cc(C)c(CN2CCc3c(Cl)c4c(c(C)c3C2=O)OC(C)([C@H]2C[C@H](N(C)C)C2)O4)c(=O)[nH]1 (stereo partly drawn) [Compound 35, 9-chloro-6-((4,6-dimethyl-2-oxo-1,2-dihydropyridin-3-yl)methyl)-2-(trans-3-(dimethylamino)cyclobutyl)-2,4-dimethyl-7,8-dihydro-[1,3]dioxolo[4,5-g]isoquinolin-5(6H)-one]
11	Cc1cc(C)c(CN2CCc3c(c(C)c4c(c3-c3ccccc3)OC(C)([C@H]3CC[C@H](N(C)C)CC3)O4)C2=O)c(=O)[nH]1 (stereo partly drawn) [Compound 56, 6-((4,6-dimethyl-2-oxo-1,2-dihydropyridin-3-yl)methyl)-2-(trans-4-(dimethylamino)cyclohexyl)-2,4-dimethyl-9-phenyl-7,8-dihydro-[1,3]dioxolo[4,5-g]isoquinolin-5(6H)-one]
13	Cc1cc(C)c(CN2CCc3c(c(C)c4c(c3C3=CCCC3)OC(C)([C@H]3CC[C@H](N(C)C)CC3)O4)C2=O)c(=O)[nH]1 (stereo partly drawn) [Compound 57, 9-(cyclopent-1-en-1-yl)-6-((4,6-dimethyl-2-oxo-1,2-dihydropyridin-3-yl)methyl)-2-(trans-4-(dimethylamino)cyclohexyl)-2,4-dimethyl-7,8-dihydro-[1,3]dioxolo[4,5-g]isoquinolin-5(6H)-one]
13	Cc1cc(C)c(CN2CCc3c(c(C)c4c(c3C3CCCC3)OC(C)([C@H]3CC[C@H](N(C)C)CC3)O4)C2=O)c(=O)[nH]1 (stereo partly drawn) [Compound 58, 9-cyclopentyl-6-((4,6-dimethyl-2-oxo-1,2-dihydropyridin-3-yl)methyl)-2-(trans-4-(dimethylamino)cyclohexyl)-2,4-dimethyl-7,8-dihydro-[1,3]dioxolo[4,5-g]isoquinolin-5(6H)-one]
28	Cc1cc(C)c(CN2CCc3c(c(C)c4c(c3C3=CCCCC3)OC(C)([C@H]3CC[C@H](N(C)C)CC3)O4)C2=O)c(=O)[nH]1 (stereo partly drawn) [Compound 59, 9-(cyclohex-1-en-1-yl)-6-((4,6-dimethyl-2-oxo-1,2-dihydropyridin-3-yl)methyl)-2-(trans-4-(dimethylamino)cyclohexyl)-2,4-dimethyl-7,8-dihydro-[1,3]dioxolo[4,5-g]isoquinolin-5(6H)-one]
28	Cc1cc(C)c(CN2CCc3c(c(C)c4c(c3C3CCCCC3)OC(C)([C@H]3CC[C@H](N(C)C)CC3)O4)C2=O)c(=O)[nH]1 (stereo partly drawn) [Compound 60, 9-cyclohexyl-6-((4,6-dimethyl-2-oxo-1,2-dihydropyridin-3-yl)methyl)-2-(trans-4-(dimethylamino)cyclohexyl)-2,4-dimethyl-7,8-dihydro-[1,3]dioxolo[4,5-g]isoquinolin-5(6H)-one]
4.8	C=C(C)c1c2c(c(C)c3c1OC(C)([C@H]1CC[C@H](N(C)C)CC1)O3)C(=O)N(Cc1c(C)cc(C)[nH]c1=O)CC2 (stereo partly drawn) [Compound 61, 6-((4,6-dimethyl-2-oxo-1,2-dihydropyridin-3-yl)methyl)-2-(trans-4-(dimethylamino)cyclohexyl)-2,4-dimethyl-9-(prop-1-en-2-yl)-7,8-dihydro-[1,3]dioxolo[4,5-g]isoquinolin-5(6H)-one]
6.2	Cc1cc(C)c(CN2CCc3c(c(C)c4c(c3C(C)C)OC(C)([C@H]3CC[C@H](N(C)C)CC3)O4)C2=O)c(=O)[nH]1 (stereo partly drawn) [Compound 62, 6-((4,6-dimethyl-2-oxo-1,2-dihydropyridin-3-yl)methyl)-2-(trans-4-(dimethylamino)cyclohexyl)-9-isopropyl-2,4-dimethyl-7,8-dihydro-[1,3]dioxolo[4,5-g]isoquinolin-5(6H)-one]
4.4	CCc1c2c(c(C)c3c1OC(C)([C@H]1CC[C@H](N(C)C)CC1)O3)C(=O)N(Cc1c(C)cc(C)[nH]c1=O)CC2 (stereo partly drawn) [Compound 63, 6-((4,6-dimethyl-2-oxo-1,2-dihydropyridin-3-yl)methyl)-2-(trans-4-(dimethylamino)cyclohexyl)-9-ethyl-2,4-dimethyl-7,8-dihydro-[1,3]dioxolo[4,5-g]isoquinolin-5(6H)-one]
5	Cc1cc(C)c(CN2CCc3c(c(C)c4c(c3-c3ccco3)OC(C)([C@H]3CC[C@H](N(C)C)CC3)O4)C2=O)c(=O)[nH]1 (stereo partly drawn) [Compound 64, 6-((4,6-dimethyl-2-oxo-1,2-dihydropyridin-3-yl)methyl)-2-(trans-4-(dimethylamino)cyclohexyl)-9-(furan-2-yl)-2,4-dimethyl-7,8-dihydro-[1,3]dioxolo[4,5-g]isoquinolin-5(6H)-one]
8.8	Cc1cc(C)c(CN2CCc3c(c(C)c4c(c3C3=CCOCC3)OC(C)([C@H]3CC[C@H](N(C)C)CC3)O4)C2=O)c(=O)[nH]1 (some centres unmarked) [Compound 65]

Same assay, conditions: KARPAS-422, culture time 7 days; read-out: Cell growth inhibitory activity (GI50, nM) KARPAS-422 (EZH2 Y641N mutation)

GI50 [nM]	Structure (SMILES)
310	Cc1cc(C)c(CN2CCc3c(C)c4c(c(Cl)c3C2=O)OC(C)([C@H]2CC[C@H](N(C)C)CC2)O4)c(=O)[nH]1 (single isomer, unassigned) [Compound 6, 4-chloro-6-((4,6-dimethyl-2-oxo-1,2-dihydropyridin-3-yl)methyl)-2-(trans-4-(dimethylamino)cyclohexyl)-2,9-dimethyl-7,8-dihydro-[1,3]dioxolo[4,5-g]isoquinolin-5(6H)-one]
